Like-named read-outs stand apart in the source and are kept apart here.
Experiments:
[1] = target: c-Kit (stem cell factor receptor tyrosine kinase) (Homo sapiens, UniProt P10721); assay: c-Kit inhibition; type: biochemical
[2] = tested on: Calu-6 tumour xenograft; assay: in vivo solid tumour model of WO 00/47212, Calu-6 tumour xenograft; details: once-daily oral, 28 days
[3] = tested on: Calu-6 human lung tumour xenografts; assay: Calu-6 Human Lung Cancer Xenograft Model; type: in vivo; details: athymic mice, p.o. 24 days
Procedure: Experiments were conducted in female athymic mice (Swiss nu/nu genotype, ≧6 weeks of age). Calu-6 human lung tumour xenografts were established in mice by injecting 1×10^6 cells ([…] containing 50% Matrigel®) subcutaneously in the dorsal flank. Tumour volumes were assessed using bilateral Vernier calliper measurement at least twice weekly and calculated using the formula (length×width)×√(length×width)×(π/6), where length was taken to be the longest diameter across the tumour and width the corresponding perpendicular. Mice were randomised into 4 treatment groups (10 mice/group) when the mean tumour volume reached approximately 0.2 cm^3. […] (0.5% w/v Methocel/0.1% w/v Tween 80).
Tumour growth inhibition from the start of treatment was assessed by comparison of the differences in tumour volume between control and treated groups.

[4] = tested on: HUVEC; assay: HUVEC assay, endothelial cell proliferation; type: cell-based; details: Homo sapiens

c-Kit (stem cell factor receptor tyrosine kinase), sequence (P10721 26-976): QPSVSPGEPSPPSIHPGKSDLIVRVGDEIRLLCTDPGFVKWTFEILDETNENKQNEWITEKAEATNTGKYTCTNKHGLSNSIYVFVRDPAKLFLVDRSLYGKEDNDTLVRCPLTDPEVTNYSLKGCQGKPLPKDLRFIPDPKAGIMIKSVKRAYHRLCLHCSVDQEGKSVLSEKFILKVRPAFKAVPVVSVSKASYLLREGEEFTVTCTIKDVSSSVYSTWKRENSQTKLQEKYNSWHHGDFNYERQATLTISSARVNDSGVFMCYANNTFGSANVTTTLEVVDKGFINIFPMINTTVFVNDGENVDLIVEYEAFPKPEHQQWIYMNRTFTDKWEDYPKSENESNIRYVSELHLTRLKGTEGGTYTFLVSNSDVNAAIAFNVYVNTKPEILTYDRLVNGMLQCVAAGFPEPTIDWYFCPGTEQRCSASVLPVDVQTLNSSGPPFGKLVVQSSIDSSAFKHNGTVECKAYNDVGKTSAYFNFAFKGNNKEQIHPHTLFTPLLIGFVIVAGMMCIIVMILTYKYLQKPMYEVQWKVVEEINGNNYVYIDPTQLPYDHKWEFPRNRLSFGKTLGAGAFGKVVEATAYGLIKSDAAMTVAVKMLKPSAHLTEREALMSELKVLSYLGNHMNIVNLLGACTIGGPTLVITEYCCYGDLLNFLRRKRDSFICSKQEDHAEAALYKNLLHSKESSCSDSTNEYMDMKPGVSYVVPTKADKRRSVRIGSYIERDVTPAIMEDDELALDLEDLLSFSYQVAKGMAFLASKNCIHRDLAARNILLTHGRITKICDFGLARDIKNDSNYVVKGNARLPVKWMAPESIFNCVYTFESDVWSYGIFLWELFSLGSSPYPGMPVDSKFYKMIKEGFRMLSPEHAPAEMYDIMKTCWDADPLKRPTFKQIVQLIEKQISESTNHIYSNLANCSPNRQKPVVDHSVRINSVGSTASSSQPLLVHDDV

SMILES | inhibition of c-Kit [1] | inhibition of growth of Calu-6 tumour xenograft ([2]; 1.5 mg/kg/day, P<0.01) [%] | inhibition of growth of Calu-6 tumour xenograft ([2]; 3 mg/kg/day, P<0.0001) [%] | inhibition of growth of Calu-6 tumour xenograft ([2]; 6 mg/kg/day, P<0.0001) [%] | tumour growth inhibition ([3]; AZD2171 1.5 mg/kg once daily alone) [%] | IC50 ([4]; VEGF-stimulated, read-out: IC50, VEGF-stimulated endothelial cell proliferation) [pM] | IC50 ([4]; basal (no VEGF stimulation), read-out: IC50, basal endothelial cell proliferation) [pM] | tumour growth inhibition ([3]; AZD6244 3 mg/kg twice daily alone) [%]
COc1cc2c(Oc3ccc4[nH]c(C)cc4c3F)ncnc2cc1OCCCN1CCCC1 [AZD2171, 4-(4-fluoro-2-methyl-1H-indol-5-yloxy)-6-methoxy-7-(3-(pyrrolidin-1-yl)propoxy)quinazoline] | inhibits | 49 | 69 | 91 | 47 | 400 ± 200 | > 500000 | –
Cn1cnc2c(F)c(Nc3ccc(Br)cc3Cl)c(C(=O)NOCCO)cc21 [AZD6244, 6-(4-Bromo-2-chloro-phenylamino)-7-fluoro-3-methyl-3H-benzoimidazole-5-carboxylic acid (2-hydroxy-ethoxy)-amide] | – | – | – | – | – | – | – | 44

Reference: US20100130519A1 (priority 2007, published 2010)
